What was measured:
Format in all cases: functional, cell-based
Settings in all cases: Homo sapiens
DU-145 [1] = experiment: The concentration levels of spermidine (SD) evaluated in DU145 cells treated with the compound concentration of 0.02 uM on third day of treatment.
DU-145 [2] = experiment: The concentration levels of spermine (SP) evaluated in DU145 cells treated with the compound concentration of 2 uM on third day of treatment.
DU-145 [3] = experiment: The concentration levels of spermine (SP), evaluated in DU145 cells treated with the compound concentration of 2 uM on first day of treatment.
DU-145 [4] = experiment: The concentration levels of putrescine (PU) evaluated in DU145 cells treated with the compound concentration of 2 uM on third day of treatment.
DU-145 [5] = experiment: The concentration levels of putrescine (PU) evaluated in DU145 cells treated with the compound concentration of 2 uM on first day of treatment.
DU-145 [6] = experiment: The concentration levels of analogue evaluated in DU145 cells treated with the compound concentration of 0.02 uM on first day of treatment.
DU-145 [7] = experiment: The concentration levels of analogue evaluated in DU145 cells treated with the compound concentration of 2 uM on third day of treatment.
DU-145 [8] = experiment: The concentration levels of spermidine (SD), evaluated in DU145 cells treated with the compound concentration of 2 uM on first day of treatment.
DU-145 [9] = experiment: The concentration levels of putrescine (PU) evaluated in DU145 cells treated with the compound concentration of 0.02 uM on third day of treatment.
DU-145 [10] = experiment: The concentration levels of spermine (SP), evaluated in DU145 cells treated with the compound concentration of 0.02 uM on first day of treatment.
DU-145 [11] = experiment: The concentration levels of spermidine (SD), evaluated in DU145 cells treated with the compound concentration of 0.02 uM on first day of treatment.
DU-145 [12] = experiment: The concentration levels of spermine (SP) evaluated in DU145 cells treated with the compound concentration of 0.02 uM on third day of treatment.
DU-145 [13] = experiment: The concentration levels of analogue evaluated in DU145 cells treated with the compound concentration of 2 uM on first day of treatment.
DU-145 [14] = experiment: The concentration levels of analogue evaluated in DU145 cells treated with the compound concentration of 0.02 uM on third day of treatment.
DU-145 [15] = experiment: The concentration levels of putrescine (PU) evaluated in DU145 cells treated with the compound concentration of 0.02 uM on first day of treatment.
DU-145 [16] = experiment: The concentration levels of spermidine (SD) evaluated in DU145 cells treated with the compound concentration of 2 uM on third day of treatment.

## CCNCCCNCC1CC1CNCCCNCC (stereo in doubt; 5)
DU-145 [1]
  Concentration (nM (10e6*cells)-1): 1.41
DU-145 [2]
  Concentration (nM (10e6*cells)-1): 2.28
DU-145 [3]
  Concentration (nM (10e6*cells)-1): 2.64
DU-145 [4]
  Concentration (nM (10e6*cells)-1): 0.05
DU-145 [5]
  Concentration (nM (10e6*cells)-1): 0.55
DU-145 [6]
  Concentration (nM (10e6*cells)-1): 0.14
DU-145 [7]
  Concentration (nM (10e6*cells)-1): 0.18
DU-145 [8]
  Concentration (nM (10e6*cells)-1): 2.63
DU-145 [9]
  Concentration (nM (10e6*cells)-1): 0.08
DU-145 [10]
  Concentration (nM (10e6*cells)-1): 2.48
DU-145 [11]
  Concentration (nM (10e6*cells)-1): 1.92
DU-145 [12]
  Concentration (nM (10e6*cells)-1): 2.73
DU-145 [13]
  Concentration (nM (10e6*cells)-1): 0.33
DU-145 [14]
  Concentration (nM (10e6*cells)-1): 0.06
DU-145 [15]
  Concentration (nM (10e6*cells)-1): 0.2
DU-145 [16]
  Concentration (nM (10e6*cells)-1): 1.38
